Consider 14 compounds from patent publication US11739098B2 (BRISTOL-MYERS SQUIBB COMPANY, priority 2017, dated 2023).

What all share (type): cell-based
Experiment [1] concerns the target T1, human TLR8 (Homo sapiens, UniProt Q9NR97).
T1 construct: host or cells: HEK-Blue cells (HEK293-derived reporter line)
T1 sequence (Q9NR97 27-1041): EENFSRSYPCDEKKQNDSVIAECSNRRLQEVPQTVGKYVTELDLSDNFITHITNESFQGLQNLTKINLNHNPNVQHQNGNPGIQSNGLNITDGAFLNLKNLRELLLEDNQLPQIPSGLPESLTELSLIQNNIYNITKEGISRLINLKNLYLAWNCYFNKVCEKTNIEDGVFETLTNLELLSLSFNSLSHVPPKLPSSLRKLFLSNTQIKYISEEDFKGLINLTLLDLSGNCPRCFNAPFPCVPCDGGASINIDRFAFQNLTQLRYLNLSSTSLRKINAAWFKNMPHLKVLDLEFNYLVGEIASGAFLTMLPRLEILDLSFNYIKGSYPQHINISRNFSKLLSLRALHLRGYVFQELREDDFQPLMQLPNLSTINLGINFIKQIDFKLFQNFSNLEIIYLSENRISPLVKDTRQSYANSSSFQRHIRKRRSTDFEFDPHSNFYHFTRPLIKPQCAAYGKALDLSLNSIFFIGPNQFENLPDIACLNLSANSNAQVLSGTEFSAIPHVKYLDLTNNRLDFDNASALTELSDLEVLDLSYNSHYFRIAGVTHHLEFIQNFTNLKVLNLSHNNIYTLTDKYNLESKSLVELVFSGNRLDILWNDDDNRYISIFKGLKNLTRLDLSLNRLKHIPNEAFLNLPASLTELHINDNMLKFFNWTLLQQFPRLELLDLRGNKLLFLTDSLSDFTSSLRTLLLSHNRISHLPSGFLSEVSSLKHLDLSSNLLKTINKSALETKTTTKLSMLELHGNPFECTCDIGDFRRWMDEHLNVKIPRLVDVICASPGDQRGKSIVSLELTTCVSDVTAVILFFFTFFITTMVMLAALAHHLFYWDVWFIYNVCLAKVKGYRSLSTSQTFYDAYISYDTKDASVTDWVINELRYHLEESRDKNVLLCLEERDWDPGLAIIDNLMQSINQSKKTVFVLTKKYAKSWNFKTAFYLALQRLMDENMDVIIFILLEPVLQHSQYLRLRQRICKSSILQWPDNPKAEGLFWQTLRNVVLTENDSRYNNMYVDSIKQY
The experiment is described as follows: TLR8 inhibition reporter assay (HEK-Blue cells, SEAP reporter, R848 stimulation). The following applies: HEK-Blue cells overexpressing human TLR8, SEAP reporter, R848 15.9 μM. Put shortly:
(§1)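 HEK-Blue cells overexpressing the receptor, with NF-κB/AP-1-driven SEAP, were pre-treated 30 min at room temperature with compound (0.05 nM–50 μM), then stimulated with gardiquimod 7.5 μM (TLR7), R848 15.9 μM (TLR8) or ODN2006 5 nM (TLR9). SEAP was read after 22 h at 37 °C as percent inhibition.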

Experiment [2] concerns the target T2, human TLR7 (Homo sapiens, UniProt Q9NYK1).
T2 construct: host or cells: HEK-Blue cells (HEK293-derived reporter line)
T2 sequence (Q9NYK1 27-1049): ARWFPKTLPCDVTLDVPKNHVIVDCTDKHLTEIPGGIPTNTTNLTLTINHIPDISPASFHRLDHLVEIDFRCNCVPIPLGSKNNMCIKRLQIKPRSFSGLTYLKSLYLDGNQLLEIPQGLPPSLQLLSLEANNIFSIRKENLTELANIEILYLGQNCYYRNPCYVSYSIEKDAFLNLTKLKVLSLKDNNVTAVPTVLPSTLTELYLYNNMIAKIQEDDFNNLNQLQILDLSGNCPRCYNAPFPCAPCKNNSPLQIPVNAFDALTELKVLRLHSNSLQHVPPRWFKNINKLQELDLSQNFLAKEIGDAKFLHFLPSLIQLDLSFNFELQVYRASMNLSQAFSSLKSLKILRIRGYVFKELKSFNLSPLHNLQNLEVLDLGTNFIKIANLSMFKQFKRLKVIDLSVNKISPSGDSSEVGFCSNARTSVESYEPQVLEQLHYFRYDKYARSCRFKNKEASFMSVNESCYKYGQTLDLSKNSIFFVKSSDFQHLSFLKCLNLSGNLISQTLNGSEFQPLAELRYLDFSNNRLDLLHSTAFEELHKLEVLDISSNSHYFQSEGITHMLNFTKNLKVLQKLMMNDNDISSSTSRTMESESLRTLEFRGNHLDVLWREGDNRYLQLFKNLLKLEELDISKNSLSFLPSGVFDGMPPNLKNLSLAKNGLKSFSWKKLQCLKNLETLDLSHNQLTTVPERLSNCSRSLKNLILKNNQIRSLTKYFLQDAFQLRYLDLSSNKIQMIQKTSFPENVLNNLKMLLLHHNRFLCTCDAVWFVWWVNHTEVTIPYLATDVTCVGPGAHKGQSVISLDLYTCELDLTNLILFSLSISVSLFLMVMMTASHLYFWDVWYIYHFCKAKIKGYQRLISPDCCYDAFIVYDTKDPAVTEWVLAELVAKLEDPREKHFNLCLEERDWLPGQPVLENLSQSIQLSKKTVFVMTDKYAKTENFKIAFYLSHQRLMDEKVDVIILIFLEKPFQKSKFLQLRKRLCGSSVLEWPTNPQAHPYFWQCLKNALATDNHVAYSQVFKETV
Kind of experiment: TLR7 inhibition reporter assay (HEK-Blue cells, SEAP reporter, gardiquimod stimulation). As to conditions: HEK-Blue cells overexpressing human TLR7, SEAP reporter, gardiquimod 7.5 μM. Put shortly: as §1
On the technique in general: In a reporter assay the amount or activity of a reporter protein is the signal.

Experiment [3] concerns the target T3, human TLR9 (Homo sapiens, UniProt Q9NR96).
T3 construct: host or cells: HEK-Blue cells (HEK293-derived reporter line)
T3 sequence (Q9NR96 26-1032): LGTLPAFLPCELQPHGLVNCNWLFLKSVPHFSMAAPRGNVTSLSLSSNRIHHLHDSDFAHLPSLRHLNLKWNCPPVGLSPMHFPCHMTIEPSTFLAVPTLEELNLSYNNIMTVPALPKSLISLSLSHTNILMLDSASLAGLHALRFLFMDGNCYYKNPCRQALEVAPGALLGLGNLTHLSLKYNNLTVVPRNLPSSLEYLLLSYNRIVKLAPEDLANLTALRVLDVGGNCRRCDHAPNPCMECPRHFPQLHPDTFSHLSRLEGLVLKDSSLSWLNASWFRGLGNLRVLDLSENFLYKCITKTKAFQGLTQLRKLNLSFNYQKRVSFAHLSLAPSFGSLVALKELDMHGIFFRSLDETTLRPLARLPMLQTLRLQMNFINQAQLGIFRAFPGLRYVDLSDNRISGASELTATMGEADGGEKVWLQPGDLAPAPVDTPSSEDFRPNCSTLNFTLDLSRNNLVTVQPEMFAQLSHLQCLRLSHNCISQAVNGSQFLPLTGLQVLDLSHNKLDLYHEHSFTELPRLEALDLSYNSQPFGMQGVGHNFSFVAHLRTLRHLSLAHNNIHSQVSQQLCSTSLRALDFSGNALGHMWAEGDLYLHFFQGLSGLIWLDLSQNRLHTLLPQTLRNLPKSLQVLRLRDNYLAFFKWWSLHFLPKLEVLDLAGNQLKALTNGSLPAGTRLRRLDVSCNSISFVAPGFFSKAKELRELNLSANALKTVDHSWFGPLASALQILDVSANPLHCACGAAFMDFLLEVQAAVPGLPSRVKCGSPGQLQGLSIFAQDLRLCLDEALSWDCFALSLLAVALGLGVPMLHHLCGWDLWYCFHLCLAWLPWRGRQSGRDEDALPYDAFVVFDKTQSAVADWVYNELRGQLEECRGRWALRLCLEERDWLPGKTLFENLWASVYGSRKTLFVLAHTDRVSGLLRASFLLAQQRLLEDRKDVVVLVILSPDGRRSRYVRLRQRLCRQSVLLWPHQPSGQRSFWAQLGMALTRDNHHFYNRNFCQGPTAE
The experiment is described as follows: TLR9 inhibition reporter assay (HEK-Blue cells, SEAP reporter, ODN2006 stimulation). As to conditions: HEK-Blue cells overexpressing human TLR9, SEAP reporter, ODN2006 5 nM. Put shortly: as §1

SMILES strings stand for the structures.

A word on the IC50: it is the concentration that inhibits the measured activity by half. High values mean weaker potency in that assay, low ones greater potency in that assay.

`Cc1cc(-c2[nH]c3ccc(C4CCN(CC(=O)N(C)C)CC4)cc3c2C(C)C)cc2cccnc12` [Example 435, 2-(4-(3-isopropyl-2-(8-methylquinolin-6-yl)-1H-indol-5-yl)piperidin-1-yl)-N,N-dimethylacetamide]: the values for the IC50 in experiment [1], in experiment [2] and in experiment [3] were below 100 nM, below 100 nM and 1000 to 50000 nM, respectively.

On to `CC(C)c1c(-c2ccc(C#N)c3ncccc23)[nH]c2ccc(C3CCN(CC(N)=O)CC3)cc12` [Example 369, 2-(4-(2-(8-cyanoquinolin-5-yl)-3-isopropyl-1H-indol-5-yl)piperidin-1-yl)acetamide], for which the IC50 in experiment [1] was below 100 nM; in experiment [2], below 100 nM; in experiment [3] it was 1000 to 50000 nM.

For `Cc1cn2cc(-c3[nH]c4ccc(C5CCNCC5)cc4c3C(C)C)c(C)cc2n1` [Example 122, 6-(3-isopropyl-5-(piperidin-4-yl)-1H-indol-2-yl)-2,7-dimethylimidazo[1,2-a]pyridine], the IC50 in experiment [1] is 100 to 1000 nM; in experiment [2], below 100 nM; in experiment [3], 100 to 1000 nM.

With `CC(C)c1c(-c2ccc3[nH]ccc3c2)[nH]c2ccc(C3CCNCC3)cc12` [Example 66, 3-isopropyl-5-(piperidin-4-yl)-1H,1′H-2,5′-biindole], the IC50 in experiment [1], in experiment [2] and in experiment [3] was 1000 to 50000 nM in each case.

As for `CC(C)c1c(-c2cc(C(F)(F)F)c3nccn3c2)[nH]c2ccc(C3CCN(C(=O)CN(C)C)CC3)cc12` [Example 507, 2-(dimethylamino)-1-(4-(3-isopropyl-2-(8-(trifluoromethyl)imidazo[1,2-a]pyridin-6-yl)-1H-indol-5-yl)piperidin-1-yl)ethan-1-one], the results for the IC50 in experiment [1], in experiment [2] and in experiment [3] were below 100 nM, below 100 nM and 100 to 1000 nM, respectively.

Consider `CC(C)c1c(-c2ccc3[nH]ncc3c2)[nH]c2ccc(C3CCNCC3)cc12` [Example 169, 5-(3-isopropyl-5-(piperidin-4-yl)-1H-indol-2-yl)-1H-indazole], for which the IC50 in experiment [1] is 1000 to 50000 nM; in experiment [2], 100 to 1000 nM; in experiment [3] it was 1000 to 50000 nM.

`CC(C)c1c(-c2c[nH]c3cnccc23)[nH]c2ccc(C3CCNCC3)cc12` [Example 15, 3-(3-isopropyl-5-(piperidin-4-yl)-1H-indol-2-yl)-1H-pyrrolo[2,3-c]pyridine]: the IC50 in experiment [1] was in the range of 1000 to 50000 nM; in experiment [2] it was 100 to 1000 nM; in experiment [3], 100 to 1000 nM.

Regarding `CC(C)NC(=O)CN1CCC(c2ccc3[nH]c(-c4ccc5nccn5c4)c(C(C)C)c3c2)CC1` [Example 402, 2-(4-(2-(imidazo[1,2-a]pyridin-6-yl)-3-isopropyl-1H-indol-5-yl)piperidin-1-yl)-N-isopropylacetamide], the IC50 is 100 to 1000 nM in experiment [1], below 100 nM in experiment [2] and 1000 to 50000 nM in experiment [3].

With `CC(C)c1c(-c2cn(C)c3ncccc23)[nH]c2ccc(C3CCN(CC(N)=O)CC3)cc12` [Example 296, 2-(4-(3-isopropyl-2-(1-methyl-1H-pyrrolo [2,3-b]pyridin-3-yl)-1H-indol-5-yl)piperidin-1-yl)acetamide], the IC50 in experiment [1] is below 100 nM; in experiment [2] it was below 100 nM; in experiment [3], 1000 to 50000 nM.

Regarding `Cc1cc(-c2[nH]c3ccc(C4CCNCC4)cc3c2C(C)C)cc2cncn12` [Example 164, 7-(3-isopropyl-5-(piperidin-4-yl)-1H-indol-2-yl)-5-methylimidazo[1,5-a]pyridine], the IC50 in experiment [1] is below 100 nM; in experiment [2], below 100 nM; in experiment [3], 100 to 1000 nM.

`CC(C)c1c(-c2cn(C)c3ncccc23)[nH]c2ccc(C3CCN(Cc4ncn(C)n4)CC3)cc12` [Example 878, 3-(3-isopropyl-5-(1-((1-methyl-1H-1,2,4-triazol-3-yl)methyl)piperidin-4-yl)-1H-indol-2-yl)-1-methyl-1H-pyrrolo[2,3-b]pyridine]: the IC50 was below 100 nM in experiment [1], below 100 nM in experiment [2] and 1000 to 50000 nM in experiment [3].

On to `Cc1cc(-c2[nH]c3ccc(C4CCN(CC(C)(C)O)CC4)cc3c2C(C)C)cn2ccnc12` [Example 774, 1-(4-(3-isopropyl-2-(8-methylimidazo[1,2-a]pyridin-6-yl)-1H-indol-5-yl)piperidin-1-yl)-2-methylpropan-2-ol], for which the values for the IC50 in experiment [1], in experiment [2] and in experiment [3] were below 100 nM, below 100 nM and 100 to 1000 nM, respectively.

Regarding `CC(C)c1c(-c2ccnc3[nH]ncc23)[nH]c2cc(Cl)c(C3CCNCC3)cc12` [Example 252, 4-(6-chloro-3-isopropyl-5-(piperidin-4-yl)-1H-indol-2-yl)-1H-pyrazolo[3,4-b]pyridine], the IC50 in experiment [1] was below 100 nM; in experiment [2] it was below 100 nM; in experiment [3], 100 to 1000 nM.

Turning to `CNC(=O)CN1CCC(c2ccc3[nH]c(-c4cc(CC(C)C)n5nc(C)cc5c4)c(C(C)C)c3c2)CC1` [Example 392, 2-(4-(2-(7-isobutyl-2-methylpyrazolo[1,5-a]pyridin-5-yl)-3-isopropyl-1H-indol-5-yl)piperidin-1-yl)-N-methylacetamide], the IC50 in experiment [1] is above 3130 nM; in experiment [2], above 3130 nM; in experiment [3], 1000 to 50000 nM.
